From PubChem BioAssay AID2060889 (Molecular Pharmacology Branch, DTP, NCI, 2025)

Test system: LG0567-F671-PDC complex spheroids viability
Experiment: Anticancer human tumor LG0567-F671-PDC patient-derived lung adenocarcinoma cell line growth inhibition [RAS]
Details: for IC50: curve of first compound; for viability, T/C: stronger effect = lower value
Outline: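 Multi-cell-type spheroids: tumor cells plus HUVEC endothelial cells and mesenchymal stem cells. RAS-pathway inhibitors were combined with targeted agents, each dosed in half-log steps down from clinical Cmax, or from 10 microM when Cmax was unknown.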

[1] = second compound 0.0316 µM, first compound 0.00316 µM
[2] = second compound 0.0316 µM, first compound 0.01 µM
[3] = second compound 0.0316 µM, first compound 0.0316 µM
[4] = second compound 0.0316 µM, first compound 0.1 µM
[5] = second compound 0.0316 µM, first compound 0.316 µM
[6] = second compound 0.0316 µM, first compound 1 µM
[7] = second compound 0.1 µM, first compound 0.00316 µM
[8] = second compound 0.1 µM, first compound 0.01 µM
[9] = second compound 0.1 µM, first compound 0.0316 µM
[10] = second compound 0.1 µM, first compound 0.1 µM
[11] = second compound 0.1 µM, first compound 0.316 µM
[12] = second compound 0.1 µM, first compound 1 µM
[13] = second compound 0.316 µM, first compound 0.00316 µM
[14] = second compound 0.316 µM, first compound 0.01 µM
[15] = second compound 0.316 µM, first compound 0.0316 µM
[16] = second compound 0.316 µM, first compound 0.1 µM
[17] = second compound 0.316 µM, first compound 0.316 µM
[18] = second compound 0.316 µM, first compound 1 µM
[19] = second compound 1 µM, first compound 0.00316 µM
[20] = second compound 1 µM, first compound 0.01 µM
[21] = second compound 1 µM, first compound 0.0316 µM
[22] = second compound 1 µM, first compound 0.1 µM
[23] = second compound 1 µM, first compound 0.316 µM
[24] = second compound 1 µM, first compound 1 µM
[25] = second compound 0.0316 µM, first compound 0.000949 µM
[26] = second compound 0.0316 µM, first compound 0.003 µM
[27] = second compound 0.0316 µM, first compound 0.00949 µM
[28] = second compound 0.0316 µM, first compound 0.03 µM
[29] = second compound 0.0316 µM, first compound 0.0949 µM
[30] = second compound 0.0316 µM, first compound 0.3 µM
[31] = second compound 0.1 µM, first compound 0.000949 µM
[32] = second compound 0.1 µM, first compound 0.003 µM
[33] = second compound 0.1 µM, first compound 0.00949 µM
[34] = second compound 0.1 µM, first compound 0.03 µM
[35] = second compound 0.1 µM, first compound 0.0949 µM
[36] = second compound 0.1 µM, first compound 0.3 µM
[37] = second compound 0.316 µM, first compound 0.000949 µM
[38] = second compound 0.316 µM, first compound 0.003 µM
[39] = second compound 0.316 µM, first compound 0.00949 µM
[40] = second compound 0.316 µM, first compound 0.03 µM
[41] = second compound 0.316 µM, first compound 0.0949 µM
[42] = second compound 0.316 µM, first compound 0.3 µM
[43] = second compound 1 µM, first compound 0.000949 µM
[44] = second compound 1 µM, first compound 0.003 µM
[45] = second compound 1 µM, first compound 0.00949 µM
[46] = second compound 1 µM, first compound 0.03 µM
[47] = second compound 1 µM, first compound 0.0949 µM
[48] = second compound 1 µM, first compound 0.3 µM
[49] = second compound 3.16 µM, first compound 0.000949 µM
[50] = second compound 3.16 µM, first compound 0.003 µM
[51] = second compound 3.16 µM, first compound 0.00949 µM
[52] = second compound 3.16 µM, first compound 0.03 µM
[53] = second compound 3.16 µM, first compound 0.0949 µM
[54] = second compound 3.16 µM, first compound 0.3 µM
[55] = second compound 10 µM, first compound 0.000949 µM
[56] = second compound 10 µM, first compound 0.003 µM
[57] = second compound 10 µM, first compound 0.00949 µM
[58] = second compound 10 µM, first compound 0.03 µM
[59] = second compound 10 µM, first compound 0.0949 µM
[60] = second compound 10 µM, first compound 0.3 µM
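Note: spheroids exposed to compound for seven days before readout.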
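Throughout, for IC50: luminescence signal used as a proxy for viable cells.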

C=CC(=O)N1CCN(c2nc(OCC3CCCN3C)nc3c(F)c(-c4nc(N)cc(C)c4C(F)(F)F)c(Cl)cc23)C(C)C1 (stereo not drawn) + C#Cc1c(F)ccc2cc(O)cc(-c3ncc4c(N5CC6CCC(C5)N6)nc(OCC56CCCN5CC(F)C6)nc4c3F)c12
IC50 (second compound 0.0316 µM): < 3.16 nM
IC50 (second compound 0.1 µM): < 3.16 nM
IC50 (second compound 0.316 µM): < 3.16 nM
IC50 (second compound 1 µM): < 3.16 nM
IC50 (second compound 3.16 µM): < 3.16 nM
IC50 (second compound 10 µM): < 3.16 nM
viability, T/C [1]: 17.4%
viability, T/C [2]: 12.2%
viability, T/C [3]: 11.1%
viability, T/C [4]: 12.7%
viability, T/C [5]: 12.4%
viability, T/C [6]: 11.7%
viability, T/C [7]: 14%
viability, T/C [8]: 12%
viability, T/C [9]: 9.61%
viability, T/C [10]: 11.5%
viability, T/C [11]: 11%
viability, T/C [12]: 10.9%
viability, T/C [13]: 16.3%
viability, T/C [14]: 15.7%
viability, T/C [15]: 11.2%
viability, T/C [16]: 8.83%
viability, T/C [17]: 13.8%
viability, T/C [18]: 9.54%
viability, T/C [19]: 20%
viability, T/C [20]: 12.6%
viability, T/C [21]: 10.3%
viability, T/C [22]: 8.88%
viability, T/C [23]: 9.02%
viability, T/C [24]: 8.65%
viability, T/C (second compound 3.16 µM, first compound 0.00316 µM): 14%
viability, T/C (second compound 3.16 µM, first compound 0.01 µM): 10.2%
viability, T/C (second compound 3.16 µM, first compound 0.0316 µM): 8.81%
viability, T/C (second compound 3.16 µM, first compound 0.1 µM): 7.62%
viability, T/C (second compound 3.16 µM, first compound 0.316 µM): 9.35%
viability, T/C (second compound 3.16 µM, first compound 1 µM): 8.07%
viability, T/C (second compound 10 µM, first compound 0.00316 µM): 10.8%
viability, T/C (second compound 10 µM, first compound 0.01 µM): 8.76%
viability, T/C (second compound 10 µM, first compound 0.0316 µM): 8.93%
viability, T/C (second compound 10 µM, first compound 0.1 µM): 9.51%
viability, T/C (second compound 10 µM, first compound 0.316 µM): 9.18%
viability, T/C (second compound 10 µM, first compound 1 µM): 8.52%

CC1(C)CCC(Nc2ncc(C(F)(F)F)c(-c3c[nH]c4c(P(C)(C)=O)c(C#N)ccc34)n2)CN1 (stereo not drawn) + C#Cc1c(F)ccc2cc(O)cc(-c3ncc4c(N5CC6CCC(C5)N6)nc(OCC56CCCN5CC(F)C6)nc4c3F)c12
IC50 (second compound 0.0316 µM): 4.36 nM
IC50 (second compound 0.1 µM): < 0.949 nM
IC50 (second compound 0.316 µM): < 0.949 nM
IC50 (second compound 1 µM): < 0.949 nM
IC50 (second compound 3.16 µM): < 0.949 nM
IC50 (second compound 10 µM): < 0.949 nM
viability, T/C [25]: 61.2%
viability, T/C [26]: 50.8%
viability, T/C [27]: 48.4%
viability, T/C [28]: 45.5%
viability, T/C [29]: 43.3%
viability, T/C [30]: 46%
viability, T/C [31]: 54.5%
viability, T/C [32]: 45.1%
viability, T/C [33]: 42.7%
viability, T/C [34]: 45.3%
viability, T/C [35]: 45.2%
viability, T/C [36]: 44.4%
viability, T/C [37]: 40.9%
viability, T/C [38]: 34.8%
viability, T/C [39]: 36%
viability, T/C [40]: 32.6%
viability, T/C [41]: 34.1%
viability, T/C [42]: 34.1%
viability, T/C [43]: 22.6%
viability, T/C [44]: 21.8%
viability, T/C [45]: 23.2%
viability, T/C [46]: 21.7%
viability, T/C [47]: 23%
viability, T/C [48]: 25.2%
viability, T/C [49]: 15.2%
viability, T/C [50]: 12.6%
viability, T/C [51]: 13.6%
viability, T/C [52]: 15.4%
viability, T/C [53]: 16%
viability, T/C [54]: 15.3%
viability, T/C [55]: 9.1%
viability, T/C [56]: 8.15%
viability, T/C [57]: 8.73%
viability, T/C [58]: 8.94%
viability, T/C [59]: 9.91%
viability, T/C [60]: 8.26%

CCc1c2c(nc3ccc(O)cc13)-c1cc3c(c(=O)n1C2)COC(=O)[C@]3(O)CC + C#Cc1c(F)ccc2cc(O)cc(-c3ncc4c(N5CC6CCC(C5)N6)nc(OCC56CCCN5CC(F)C6)nc4c3F)c12
IC50 (second compound 0.0316 µM): 16.1 nM
IC50 (second compound 0.1 µM): 11.7 nM
IC50 (second compound 0.316 µM): 2.33 nM
IC50 (second compound 1 µM): < 0.949 nM
IC50 (second compound 3.16 µM): < 0.949 nM
IC50 (second compound 10 µM): < 0.949 nM
viability, T/C [25]: 82.4%
viability, T/C [26]: 67.4%
viability, T/C [27]: 56.8%
viability, T/C [28]: 44.4%
viability, T/C [29]: 23.6%
viability, T/C [30]: 6.15%
viability, T/C [31]: 73.3%
viability, T/C [32]: 61%
viability, T/C [33]: 54.8%
viability, T/C [34]: 38.6%
viability, T/C [35]: 22.4%
viability, T/C [36]: 7.9%
viability, T/C [37]: 50.4%
viability, T/C [38]: 53.3%
viability, T/C [39]: 41%
viability, T/C [40]: 29.8%
viability, T/C [41]: 20.3%
viability, T/C [42]: 7.35%
viability, T/C [43]: 30.5%
viability, T/C [44]: 29.1%
viability, T/C [45]: 26.7%
viability, T/C [46]: 20.9%
viability, T/C [47]: 13.9%
viability, T/C [48]: 6.24%
viability, T/C [49]: 20%
viability, T/C [50]: 15.3%
viability, T/C [51]: 15.6%
viability, T/C [52]: 11.2%
viability, T/C [53]: 8.88%
viability, T/C [54]: 4.31%
viability, T/C [55]: 11%
viability, T/C [56]: 10%
viability, T/C [57]: 10.1%
viability, T/C [58]: 6.59%
viability, T/C [59]: 4.97%
viability, T/C [60]: 3.6%

C=CC(=O)Nc1cc(Nc2nccc(-c3cn(C)c4ccccc34)n2)c(OC)cc1N(C)CCN(C)C + C=CC(=O)N1CCN(c2nc(OCC3CCCN3C)nc3c(F)c(-c4nc(N)cc(C)c4C(F)(F)F)c(Cl)cc23)C(C)C1
IC50 (second compound 0.00316 µM): < 3.16 nM
IC50 (second compound 0.01 µM): < 3.16 nM
IC50 (second compound 0.0316 µM): < 3.16 nM
IC50 (second compound 0.1 µM): < 3.16 nM
IC50 (second compound 0.316 µM): < 3.16 nM
IC50 (second compound 1 µM): < 3.16 nM
viability, T/C (second compound 0.00316 µM, first compound 0.00316 µM): 18.7%
viability, T/C (second compound 0.00316 µM, first compound 0.01 µM): 15.6%
viability, T/C (second compound 0.00316 µM, first compound 0.0316 µM): 12.6%
viability, T/C (second compound 0.00316 µM, first compound 0.1 µM): 12.6%
viability, T/C (second compound 0.00316 µM, first compound 0.316 µM): 4.81%
viability, T/C (second compound 0.00316 µM, first compound 1 µM): 3.52%
viability, T/C (second compound 0.01 µM, first compound 0.00316 µM): 15.1%
viability, T/C (second compound 0.01 µM, first compound 0.01 µM): 12.1%
viability, T/C (second compound 0.01 µM, first compound 0.0316 µM): 10%
viability, T/C (second compound 0.01 µM, first compound 0.1 µM): 8.19%
viability, T/C (second compound 0.01 µM, first compound 0.316 µM): 4.72%
viability, T/C (second compound 0.01 µM, first compound 1 µM): 2.49%
viability, T/C [1]: 13.3%
viability, T/C [2]: 12.7%
viability, T/C [3]: 9.76%
viability, T/C [4]: 7.26%
viability, T/C [5]: 6.15%
viability, T/C [6]: 2.62%
viability, T/C [7]: 15%
viability, T/C [8]: 11.8%
viability, T/C [9]: 9.84%
viability, T/C [10]: 7.87%
viability, T/C [11]: 4.28%
viability, T/C [12]: 2.86%
viability, T/C [13]: 14%
viability, T/C [14]: 11.4%
viability, T/C [15]: 9.92%
viability, T/C [16]: 6.96%
viability, T/C [17]: 4.73%
viability, T/C [18]: 3.38%
viability, T/C [19]: 13.3%
viability, T/C [20]: 12.2%
viability, T/C [21]: 11.4%
viability, T/C [22]: 10.6%
viability, T/C [23]: 4.57%
viability, T/C [24]: 3.23%
